Columns and labels:
Assay type in all cases: binding
AZG2 [1] = molecular target: T1, AZG2 (Arabidopsis thaliana, UniProt Q84MA8); assay: ITC
T1 sequence (Q84MA8 1-530): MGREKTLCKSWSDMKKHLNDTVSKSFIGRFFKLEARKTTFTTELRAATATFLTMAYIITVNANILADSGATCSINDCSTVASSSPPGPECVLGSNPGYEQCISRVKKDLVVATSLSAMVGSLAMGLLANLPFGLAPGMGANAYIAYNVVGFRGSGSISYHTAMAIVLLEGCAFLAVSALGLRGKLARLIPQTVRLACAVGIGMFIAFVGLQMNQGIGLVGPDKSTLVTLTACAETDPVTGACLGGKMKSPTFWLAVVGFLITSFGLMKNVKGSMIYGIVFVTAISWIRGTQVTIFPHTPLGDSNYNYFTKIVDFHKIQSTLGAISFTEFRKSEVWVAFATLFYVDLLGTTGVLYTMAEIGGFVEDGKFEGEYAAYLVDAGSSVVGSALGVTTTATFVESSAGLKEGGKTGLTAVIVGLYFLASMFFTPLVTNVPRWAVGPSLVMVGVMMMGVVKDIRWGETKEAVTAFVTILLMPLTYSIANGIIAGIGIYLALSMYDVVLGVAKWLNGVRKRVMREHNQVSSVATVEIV

AZG2 [2] = molecular target: T1, AZG2; assay: ITC at pH […]
AZG1 = AZG1 (Arabidopsis thaliana, UniProt Q9SRK7); assay: ITC at pH […]

Row | SMILES | Kd (AZG2 [1]) [nM] | Kd (AZG2 [2]) [nM] | Kd (AZG1) [nM]
1 | c1ccc(CNc2ncnc3nc[nH]c23)cc1 [BA, benzyladenine] | 2090 ± 470 |  | 
2 | Nc1ncnc2nc[nH]c12 [adenine] |  | 770 ± 90 | 620 ± 110
3 | CC(C)=CCNc1ncnc2nc[nH]c12 [iP, N^6-(Δ^2-isopentenyl)adenine] | 710 ± 80 |  | 
4 | c1coc(CNc2ncnc3[nH]cnc23)c1 [kinetin] | 710 ± 90 |  | 

Source: article PMC11992111 (Nature Communications, 2025)
